1 substance from patent US9615572B1, “Disinfectant spray comprising copper iodide” (PEN Inc., priority 2014, dated 2017) can be followed below.

This test relates to feline calcivirus ATCC VR-782. Conditions: 20 mg/L in a water based solution applied to a surface; 10 minutes exposure; non-enveloped virus. How it is done: Copper ions (20 mg/L) in a water based solution were applied to a surface with the non-enveloped feline calcivirus ATCC VR-782. […] In our case we wanted to have an idea about the rate of killing and this is why we limited the test to 10 minutes.

Regarding copper iodide, the “reduction relative to the control” value amounted to 82.22%.
